Source: PMC4275233, “Evaluation of the Cardiotoxicity of Mitragynine and Its Analogues Using Human Induced Pluripotent Stem Cell-Derived Cardiomyocytes” (PLoS ONE, 2014)

What was measured:
hERG (Kv11.1) [1] = target: T1, hERG (Kv11.1) (Homo sapiens, UniProt Q12809); assay: whole-cell patch clamp: hERG-HEK293 cells ([…]) and I Kr in hiPSC-CMs (IC50); format: cell-based
T1 construct: gene KCNH2

hERG (Kv11.1) [2] = target: T1, hERG (Kv11.1); assay: whole-cell patch clamp of I Kr tail current in hiPSC-CMs; format: cell-based

T1 sequence (Q12809 whole entry): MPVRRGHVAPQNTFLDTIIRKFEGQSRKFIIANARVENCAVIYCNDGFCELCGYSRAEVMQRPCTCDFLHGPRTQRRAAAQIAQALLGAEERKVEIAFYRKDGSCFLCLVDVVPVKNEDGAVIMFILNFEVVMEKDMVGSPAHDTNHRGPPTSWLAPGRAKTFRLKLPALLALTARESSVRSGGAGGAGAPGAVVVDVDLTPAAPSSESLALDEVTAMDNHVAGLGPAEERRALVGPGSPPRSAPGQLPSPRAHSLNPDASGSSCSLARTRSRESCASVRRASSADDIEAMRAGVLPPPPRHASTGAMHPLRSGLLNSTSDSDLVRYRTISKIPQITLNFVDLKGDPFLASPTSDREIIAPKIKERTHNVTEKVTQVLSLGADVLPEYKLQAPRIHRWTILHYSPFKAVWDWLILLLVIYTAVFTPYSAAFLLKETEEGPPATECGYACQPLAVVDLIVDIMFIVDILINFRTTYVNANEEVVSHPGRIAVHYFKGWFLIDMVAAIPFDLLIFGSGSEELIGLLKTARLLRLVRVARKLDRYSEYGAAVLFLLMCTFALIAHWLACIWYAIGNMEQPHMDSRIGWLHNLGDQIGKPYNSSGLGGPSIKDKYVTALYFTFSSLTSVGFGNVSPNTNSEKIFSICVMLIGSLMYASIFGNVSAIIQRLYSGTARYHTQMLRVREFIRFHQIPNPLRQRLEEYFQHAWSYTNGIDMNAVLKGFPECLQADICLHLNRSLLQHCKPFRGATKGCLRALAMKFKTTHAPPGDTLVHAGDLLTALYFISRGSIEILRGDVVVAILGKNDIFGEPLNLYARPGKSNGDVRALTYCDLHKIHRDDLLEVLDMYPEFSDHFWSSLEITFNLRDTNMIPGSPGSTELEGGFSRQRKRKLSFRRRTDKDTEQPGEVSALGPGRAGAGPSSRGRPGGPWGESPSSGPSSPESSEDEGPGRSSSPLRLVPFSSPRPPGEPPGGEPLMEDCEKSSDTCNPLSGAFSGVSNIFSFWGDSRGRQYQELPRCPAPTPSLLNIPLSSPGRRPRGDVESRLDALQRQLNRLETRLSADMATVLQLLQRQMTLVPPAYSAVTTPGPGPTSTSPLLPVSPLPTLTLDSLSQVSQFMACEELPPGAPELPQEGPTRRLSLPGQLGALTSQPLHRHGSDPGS

**Q.** How did the IC50 (hERG (Kv11.1) [1]) turn out when `CC[C@@H]1CN2CCc3c([nH]c4cccc(OC)c34)[C@@H]2C[C@@H]1/C(=C\OC)C(=O)OC` [Mitragynine] was run?
**A.** Its IC50 is 0.91 µM.

**Q.** With `C=C[C@H]1CN2CCc3c([nH]c4cccc(OC)c34)[C@@H]2C[C@@H]1/C(=C\OC)C(=O)OC` [Paynantheine] as the molecule, how does the IC50 (hERG (Kv11.1) [2]) read?
**A.** Its IC50 is 2.47 µM.

**Q.** `CC[C@@H]1CN2CCc3c([nH]c4cccc(OC)c34)[C@H]2C[C@@H]1/C(=C\OC)C(=O)OC` [Speciociliatine] was tested. Which IC50 (hERG (Kv11.1) [2]) did it give?
**A.** The IC50 was 1.48 µM.

**Q.** Which IC50 (hERG (Kv11.1) [2]) does the source give for `CC[C@H]1CN2CCc3c([nH]c4cccc(OC)c34)[C@@H]2C[C@@H]1/C(=C\OC)C(=O)OC` [Speciogynine] here?
**A.** Its IC50 is 1.02 µM.
